Legend:
barnyardgrass [1] = assay: Test B flooded paddy test; format: in vivo, Echinochloa crus-galli; details: Flood, 250 g ai/ha; 0 to 100 scale where 0 is no effect and 100 is complete control
How it was run: (§1)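 Plants were grown to the 2-leaf stage, then pots were flooded to 3 cm above the soil and compounds were applied directly into the paddy water. That depth was held throughout, and after 13 to 15 days in the greenhouse injury was rated visually against controls on a 0–100 scale (0 no effect, 100 complete control).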

chickweed = assay: Test C postemergence; format: in vivo, Stellaria media; details: for Chickweed plant response rating: 31 g ai/ha; for Chickweed plant response rating / Plant response rating, Chickweed: scale 0 to 100 (0 no effect, 100 complete control)
How it was run: (§2)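 Preemergence: seeds sown in a loam soil–sand blend and sprayed with test chemical in a non-phytotoxic solvent mixture containing surfactant. Postemergence: plants at 2 to 18 cm (1- to 4-leaf stage) in peat-based medium, treated with the same formulation. Greenhouse 13 to 15 days, then visual rating 0 (no effect) to 100 (complete control).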

barnyardgrass [2] = assay: Test A preemergence; format: in vivo, Echinochloa crus-galli; details: for Barnyardgrass plant response rating: 500 g ai/ha
How it was run: (§3)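 Visual injury scored 0–100 (100 = complete control) against untreated controls about 10 days after treatment in a greenhouse. Test chemicals, formulated with surfactant in non-phytotoxic solvent, were sprayed on soil preemergence or on 2-10 cm, one- to two-leaf plants postemergence.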

large (Lg) crabgrass = assay: Test C postemergence; format: in vivo, Digitaria sanguinalis; details: for Crabgrass, Large plant response rating: 31 g ai/ha; for Crabgrass, Large plant response rating / Plant response rating, Crabgrass, Large: scale 0 to 100 (0 no effect, 100 complete control)
How it was run: as §2

blackgrass = assay: Test C postemergence; format: in vivo, Alopecurus myosuroides; details: for Blackgrass plant response rating: 31 g ai/ha; for Blackgrass plant response rating / Plant response rating, Blackgrass: scale 0 to 100 (0 no effect, 100 complete control)
How it was run: as §2

pigweed [3] = assay: Test A preemergence; format: in vivo, Amaranthus retroflexus; details: for Pigweed plant response rating (0 to 100 scale): 125 g ai/ha; for Pigweed plant response rating: 500 g ai/ha, 0 to 100 scale where 0 is no effect and 100 is complete control
How it was run: as §3

corn = assay: Test C postemergence; format: in vivo, Zea mays; details: for Corn plant response rating: 31 g ai/ha; for Corn plant response rating / Plant response rating, Corn: scale 0 to 100 (0 no effect, 100 complete control)
How it was run: as §2

Italian ryegrass = assay: Test C postemergence; format: in vivo, Lolium multiflorum; details: for Ryegrass, Italian plant response rating: 31 g ai/ha; for Ryegrass, Italian plant response rating / Plant response rating, Ryegrass, Italian: scale 0 to 100 (0 no effect, 100 complete control)
How it was run: as §2

morningglory [4] = assay: Test A postemergence; format: in vivo, Ipomoea spp.; details: 0 to 100 scale where 0 is no effect and 100 is complete control; for Morningglory plant response rating: 125 g ai/ha; for Plant response rating, Morningglory: 500 g ai/ha
How it was run: as §3

sedge, umbrella = assay: Test B flooded paddy test; format: in vivo, Cyperus difformis; details: Flood, 250 g ai/ha; 0 to 100 scale where 0 is no effect and 100 is complete control
How it was run: as §1

giant foxtail [5] = assay: Test C postemergence; format: in vivo, Setaria faberii; details: for Foxtail, Giant plant response rating: 31 g ai/ha; for Foxtail, Giant plant response rating / Plant response rating, Foxtail, Giant: scale 0 to 100 (0 no effect, 100 complete control)
How it was run: as §2

pigweed [6] = assay: Test A postemergence; format: in vivo, Amaranthus retroflexus; details: 0 to 100 scale where 0 is no effect and 100 is complete control; for Pigweed plant response rating: 125 g ai/ha; for Plant response rating, Pigweed: 500 g ai/ha
How it was run: as §3

johnsongrass = assay: Test C postemergence; format: in vivo, Sorghum halepense; details: for Johnsongrass plant response rating: 31 g ai/ha; for Johnsongrass plant response rating / Plant response rating, Johnsongrass: scale 0 to 100 (0 no effect, 100 complete control)
How it was run: as §2

giant foxtail [7] = assay: Test A preemergence; format: in vivo, Setaria faberii; details: for Foxtail, Giant plant response rating: 500 g ai/ha
How it was run: as §3

morningglory [8] = assay: Test A preemergence; format: in vivo, Ipomoea spp.; details: for Morningglory plant response rating (0 to 100 scale): 125 g ai/ha; for Morningglory plant response rating: 500 g ai/ha, 0 to 100 scale where 0 is no effect and 100 is complete control
How it was run: as §3

[9] = 16 g ai/ha, postemergence, 0 is no effect, 100 is complete control
[10] = postemergence, visual rating, 13 to 15 days
[11] = 125 g ai/ha, postemergence, visual rating
[12] = Postemergence, 62 g ai/ha, 13 to 15 days
[13] = 0 to 100 scale where 0 is no effect and 100 is complete control
[14] = 125 g ai/ha, 0 to 100 scale where 0 is no effect and 100 is complete control

## FC(F)c1cnn(-c2c(Br)cccc2Oc2ncc(Cl)cn2)c1 [Compound 232]
Barnyardgrass [1]
  Plant response rating, Barnyardgrass: 10
chickweed; [9]
  Plant response rating (0 to 100), Chickweed: 5
chickweed; [10]
  Chickweed plant response rating: 30
chickweed; [11]
  Plant response rating, Chickweed: 60
chickweed; [12]
  Plant response rating, Chickweed: 50
Barnyardgrass [2]; 125 g ai/ha
  Barnyardgrass plant response rating (0 to 100 scale, 0 is no effect, 100 is complete control): 60
Barnyardgrass [2]; [13]
  Barnyardgrass plant response rating: 100
Large (Lg) crabgrass; [9]
  Plant response rating (0 to 100), Crabgrass, Large: 5
Large (Lg) crabgrass; [10]
  Crabgrass, Large plant response rating: 5
Large (Lg) crabgrass; [11]
  Plant response rating, Crabgrass, Large: 5
Large (Lg) crabgrass; [12]
  Plant response rating, Crabgrass, Large: 5
blackgrass; [9]
  Plant response rating (0 to 100), Blackgrass: 10
blackgrass; [10]
  Blackgrass plant response rating: 0
blackgrass; [11]
  Plant response rating, Blackgrass: 25
blackgrass; [12]
  Plant response rating, Blackgrass: 5
Pigweed [3]
  Pigweed plant response rating (0 to 100 scale): 100
  Pigweed plant response rating: 100
corn; [9]
  Plant response rating (0 to 100), Corn: 5
corn; [10]
  Corn plant response rating: 10
corn; [11]
  Plant response rating, Corn: 15
corn; [12]
  Plant response rating, Corn: 10
Italian ryegrass; [9]
  Plant response rating (0 to 100), Ryegrass, Italian: 0
Italian ryegrass; [10]
  Ryegrass, Italian plant response rating: 0
Italian ryegrass; [11]
  Plant response rating, Ryegrass, Italian: 10
Italian ryegrass; [12]
  Plant response rating, Ryegrass, Italian: 5
Morningglory [4]
  Morningglory plant response rating: 80
  Plant response rating, Morningglory: 90
sedge, umbrella
  Plant response rating, Sedge, Umbrella: 80
Giant foxtail [5]; [9]
  Plant response rating (0 to 100), Foxtail, Giant: 5
Giant foxtail [5]; [10]
  Foxtail, Giant plant response rating: 5
Giant foxtail [5]; [11]
  Plant response rating, Foxtail, Giant: 15
Giant foxtail [5]; [12]
  Plant response rating, Foxtail, Giant: 5
Pigweed [6]
  Pigweed plant response rating: 100
  Plant response rating, Pigweed: 100
johnsongrass; [9]
  Plant response rating (0 to 100), Johnsongrass: 0
johnsongrass; [10]
  Johnsongrass plant response rating: 0
johnsongrass; [11]
  Plant response rating, Johnsongrass: 5
johnsongrass; [12]
  Plant response rating, Johnsongrass: 5
Giant foxtail [7]; 125 g ai/ha
  Foxtail, Giant plant response rating (0 to 100 scale): 90
Giant foxtail [7]; [13]
  Foxtail, Giant plant response rating: 90
Morningglory [8]
  Morningglory plant response rating (0 to 100 scale): 20
  Morningglory plant response rating: 90

## Fc1cccc(Oc2ncc(Cl)cn2)c1-n1cc(Cl)cn1 [Compound 177]
Barnyardgrass [1]
  Plant response rating, Barnyardgrass: 30
chickweed; [9]
  Plant response rating (0 to 100), Chickweed: 50
chickweed; [10]
  Chickweed plant response rating: 50
chickweed; [11]
  Plant response rating, Chickweed: 85
chickweed; Postemergence, 62 g ai/ha
  Plant response rating, Chickweed: 55
Barnyardgrass [2]; [14]
  Plant response rating, Barnyardgrass: 70
Barnyardgrass [2]; [13]
  Barnyardgrass plant response rating: 100
Large (Lg) crabgrass; [9]
  Plant response rating (0 to 100), Crabgrass, Large: 5
Large (Lg) crabgrass; [10]
  Crabgrass, Large plant response rating: 5
Large (Lg) crabgrass; [11]
  Plant response rating, Crabgrass, Large: 10
Large (Lg) crabgrass; Postemergence, 62 g ai/ha
  Plant response rating, Crabgrass, Large: 10
blackgrass; [9]
  Plant response rating (0 to 100), Blackgrass: 0
blackgrass; [10]
  Blackgrass plant response rating: 5
blackgrass; [11]
  Plant response rating, Blackgrass: 35
blackgrass; Postemergence, 62 g ai/ha
  Plant response rating, Blackgrass: 5
Pigweed [3]
  Pigweed plant response rating (0 to 100 scale): 100
  Pigweed plant response rating: 100
corn; [9]
  Plant response rating (0 to 100), Corn: 5
corn; [10]
  Corn plant response rating: 5
corn; [11]
  Plant response rating, Corn: 10
corn; Postemergence, 62 g ai/ha
  Plant response rating, Corn: 10
Italian ryegrass; [9]
  Plant response rating (0 to 100), Ryegrass, Italian: 0
Italian ryegrass; [10]
  Ryegrass, Italian plant response rating: 0
Italian ryegrass; [11]
  Plant response rating, Ryegrass, Italian: 0
Italian ryegrass; Postemergence, 62 g ai/ha
  Plant response rating, Ryegrass, Italian: 0
Morningglory [4]
  Morningglory plant response rating: 90
  Plant response rating, Morningglory: 100
sedge, umbrella
  Plant response rating, Sedge, Umbrella: 100
Giant foxtail [5]; [9]
  Plant response rating (0 to 100), Foxtail, Giant: 5
Giant foxtail [5]; [10]
  Foxtail, Giant plant response rating: 10
Giant foxtail [5]; [11]
  Plant response rating, Foxtail, Giant: 20
Giant foxtail [5]; Postemergence, 62 g ai/ha
  Plant response rating, Foxtail, Giant: 10
Pigweed [6]
  Pigweed plant response rating: 100
  Plant response rating, Pigweed: 100
johnsongrass; [9]
  Plant response rating (0 to 100), Johnsongrass: 5
johnsongrass; [10]
  Johnsongrass plant response rating: 5
johnsongrass; [11]
  Plant response rating, Johnsongrass: 10
johnsongrass; Postemergence, 62 g ai/ha
  Plant response rating, Johnsongrass: 5
Giant foxtail [7]; [14]
  Plant response rating, Foxtail, Giant: 100
Giant foxtail [7]; [13]
  Foxtail, Giant plant response rating: 100
Morningglory [8]
  Morningglory plant response rating (0 to 100 scale): 20
  Morningglory plant response rating: 80

## N#Cc1cnn(-c2c(C#N)cccc2Oc2ncc(Cl)cn2)c1 [Compound 200]
Barnyardgrass [1]
  Plant response rating, Barnyardgrass: 20
chickweed; [10]
  Chickweed plant response rating: 55
chickweed; [11]
  Plant response rating, Chickweed: 95
chickweed; 250 g ai/ha, postemergence
  Plant response rating (0 to 100), Chickweed: 98
chickweed; [12]
  Plant response rating, Chickweed: 75
Barnyardgrass [2]; 125 g ai/ha
  Barnyardgrass plant response rating (0 to 100 scale, 0 is no effect, 100 is complete control): 80
Barnyardgrass [2]; [13]
  Barnyardgrass plant response rating: 90
Large (Lg) crabgrass; [10]
  Crabgrass, Large plant response rating: 5
Large (Lg) crabgrass; [11]
  Plant response rating, Crabgrass, Large: 15
Large (Lg) crabgrass; 250 g ai/ha, postemergence
  Plant response rating (0 to 100), Crabgrass, Large: 20
Large (Lg) crabgrass; [12]
  Plant response rating, Crabgrass, Large: 5
blackgrass; [10]
  Blackgrass plant response rating: 5
blackgrass; [11]
  Plant response rating, Blackgrass: 10
blackgrass; 250 g ai/ha, postemergence
  Plant response rating (0 to 100), Blackgrass: 35
blackgrass; [12]
  Plant response rating, Blackgrass: 5
Pigweed [3]
  Pigweed plant response rating (0 to 100 scale): 100
  Pigweed plant response rating: 100
corn; [10]
  Corn plant response rating: 5
corn; [11]
  Plant response rating, Corn: 15
corn; 250 g ai/ha, postemergence
  Plant response rating (0 to 100), Corn: 20
corn; [12]
  Plant response rating, Corn: 10
Italian ryegrass; [10]
  Ryegrass, Italian plant response rating: 5
Italian ryegrass; [11]
  Plant response rating, Ryegrass, Italian: 5
Italian ryegrass; 250 g ai/ha, postemergence
  Plant response rating (0 to 100), Ryegrass, Italian: 5
Italian ryegrass; [12]
  Plant response rating, Ryegrass, Italian: 10
Morningglory [4]
  Morningglory plant response rating: 90
  Plant response rating, Morningglory: 100
sedge, umbrella
  Plant response rating, Sedge, Umbrella: 85
Giant foxtail [5]; [10]
  Foxtail, Giant plant response rating: 5
Giant foxtail [5]; [11]
  Plant response rating, Foxtail, Giant: 5
Giant foxtail [5]; 250 g ai/ha, postemergence
  Plant response rating (0 to 100), Foxtail, Giant: 15
Giant foxtail [5]; [12]
  Plant response rating, Foxtail, Giant: 5
Pigweed [6]
  Pigweed plant response rating: 100
  Plant response rating, Pigweed: 100
johnsongrass; [10]
  Johnsongrass plant response rating: 5
johnsongrass; [11]
  Plant response rating, Johnsongrass: 5
johnsongrass; 250 g ai/ha, postemergence
  Plant response rating (0 to 100), Johnsongrass: 30
johnsongrass; [12]
  Plant response rating, Johnsongrass: 5
Giant foxtail [7]; 125 g ai/ha
  Foxtail, Giant plant response rating (0 to 100 scale): 100
Giant foxtail [7]; [13]
  Foxtail, Giant plant response rating: 100
Morningglory [8]
  Morningglory plant response rating (0 to 100 scale): 90
  Morningglory plant response rating: 100

— patent publication US9695155B2, “Herbicidal substituted pyrimidinyloxy benzene compounds” (E. I. DU PONT DE NEMOURS AND COMPANY, priority 2013, dated 2017)
